The source made the active and inactive calls.
Legend:
[1] = target: FAD-linked sulfhydryl oxidase ALR (Homo sapiens, UniProt P55789); assay: inhibitors of human ALR sulfhydryl oxidase, dose response, biochemical, H2O2 detection, luminescence, cherry-pick (AID 493248)
Large T antigen = Large T antigen (Simian virus 40, UniProt P03070); assay type: functional, Betapolyomavirus macacae;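 further: Confirmatory-stage PubChem screen for compounds that inhibit SV40 T antigen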
Paired box protein Pax-8 = Paired box protein Pax-8 (Homo sapiens, UniProt Q06710); assay: inhibitors of PAX8-driven TPO luciferase reporter, dose response, RMG-I cells, cherry-pick (AID 687027); assay type: functional, cell-based;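 further: luciferase reporter driven by Pax8 target thyroperoxidase promoter measured by SteadyGlo luminescence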
Leucine aminopeptidase = target: T1, Leucine aminopeptidase (Plasmodium falciparum 3D7, UniProt Q8IL11); assay: P. falciparum M17LAP inhibitors, primary screen, biochemical, fluorogenic H-Leu-NHMec substrate, 1536-well (AID 1619); assay type: functional
T1 sequence (Q8IL11 whole entry): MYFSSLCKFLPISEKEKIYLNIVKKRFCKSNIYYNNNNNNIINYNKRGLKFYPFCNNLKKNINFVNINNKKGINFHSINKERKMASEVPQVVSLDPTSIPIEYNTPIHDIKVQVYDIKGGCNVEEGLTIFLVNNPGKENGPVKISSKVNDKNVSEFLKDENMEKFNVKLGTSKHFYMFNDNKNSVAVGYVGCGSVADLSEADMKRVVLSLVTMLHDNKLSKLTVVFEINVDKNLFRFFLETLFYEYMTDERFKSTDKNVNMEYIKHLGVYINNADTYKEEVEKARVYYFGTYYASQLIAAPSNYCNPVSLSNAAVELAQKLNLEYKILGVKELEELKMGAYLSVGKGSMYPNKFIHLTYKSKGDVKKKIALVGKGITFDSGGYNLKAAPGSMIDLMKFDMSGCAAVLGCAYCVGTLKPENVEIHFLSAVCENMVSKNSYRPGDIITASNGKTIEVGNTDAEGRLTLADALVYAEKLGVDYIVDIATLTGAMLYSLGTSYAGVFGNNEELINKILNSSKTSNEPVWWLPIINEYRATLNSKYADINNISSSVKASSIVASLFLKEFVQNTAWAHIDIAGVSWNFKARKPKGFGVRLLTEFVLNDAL

Aminopeptidase N = target: T2, Aminopeptidase N (Plasmodium falciparum FcB1/Columbia, UniProt O96935); assay: P. falciparum M1AAP inhibitors, biochemical, fluorogenic H-Leu-NHMec substrate, 1536-well (AID 1445); set-up: species or system Plasmodium falciparum 3D7, 3D7
T2 sequence (O96935 whole entry): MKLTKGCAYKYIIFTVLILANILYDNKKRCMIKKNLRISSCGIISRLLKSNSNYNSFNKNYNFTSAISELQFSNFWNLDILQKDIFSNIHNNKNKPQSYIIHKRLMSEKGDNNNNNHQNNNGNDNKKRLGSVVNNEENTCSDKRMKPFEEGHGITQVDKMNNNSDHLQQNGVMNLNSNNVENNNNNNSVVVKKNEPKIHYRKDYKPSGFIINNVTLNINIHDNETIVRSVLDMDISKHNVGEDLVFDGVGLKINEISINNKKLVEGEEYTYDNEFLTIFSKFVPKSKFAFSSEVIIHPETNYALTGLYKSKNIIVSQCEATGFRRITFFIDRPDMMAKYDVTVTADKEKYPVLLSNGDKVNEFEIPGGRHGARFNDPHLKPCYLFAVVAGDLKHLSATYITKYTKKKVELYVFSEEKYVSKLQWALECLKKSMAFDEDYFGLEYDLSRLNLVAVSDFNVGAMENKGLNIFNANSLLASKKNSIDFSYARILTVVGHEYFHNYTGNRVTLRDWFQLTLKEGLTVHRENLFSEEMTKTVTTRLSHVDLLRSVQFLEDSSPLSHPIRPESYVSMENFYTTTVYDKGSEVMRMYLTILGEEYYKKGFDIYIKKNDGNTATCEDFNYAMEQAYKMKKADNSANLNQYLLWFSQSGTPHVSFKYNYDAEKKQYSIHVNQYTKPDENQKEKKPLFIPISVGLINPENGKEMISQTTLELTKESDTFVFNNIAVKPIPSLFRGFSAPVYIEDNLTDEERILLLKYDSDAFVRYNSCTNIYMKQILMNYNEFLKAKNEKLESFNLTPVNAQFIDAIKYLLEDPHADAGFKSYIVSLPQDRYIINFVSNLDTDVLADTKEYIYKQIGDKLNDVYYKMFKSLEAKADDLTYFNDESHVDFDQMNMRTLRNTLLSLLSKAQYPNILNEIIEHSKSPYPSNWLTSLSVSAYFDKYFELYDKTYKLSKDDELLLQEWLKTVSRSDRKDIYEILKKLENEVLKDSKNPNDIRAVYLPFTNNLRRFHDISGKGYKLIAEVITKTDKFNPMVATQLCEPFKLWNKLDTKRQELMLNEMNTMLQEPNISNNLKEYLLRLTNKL

[2] = target: T3, Heat shock factor protein 1 (Mus musculus, UniProt P38532); assay: HSF1 potentiators in luciferase reporter cells, confirmation, cell-based, NIH3T3, luminescence, dose retest (AID 435004); assay type: functional;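 further: stress induced by proteasome inhibitor MG132 added 30 min after compound; luciferase reporter driven by HSF1 response element in NIH3T3 cells; actives raise luminescence as potentiators of the MG132 stress response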
T3 sequence (P38532 whole entry): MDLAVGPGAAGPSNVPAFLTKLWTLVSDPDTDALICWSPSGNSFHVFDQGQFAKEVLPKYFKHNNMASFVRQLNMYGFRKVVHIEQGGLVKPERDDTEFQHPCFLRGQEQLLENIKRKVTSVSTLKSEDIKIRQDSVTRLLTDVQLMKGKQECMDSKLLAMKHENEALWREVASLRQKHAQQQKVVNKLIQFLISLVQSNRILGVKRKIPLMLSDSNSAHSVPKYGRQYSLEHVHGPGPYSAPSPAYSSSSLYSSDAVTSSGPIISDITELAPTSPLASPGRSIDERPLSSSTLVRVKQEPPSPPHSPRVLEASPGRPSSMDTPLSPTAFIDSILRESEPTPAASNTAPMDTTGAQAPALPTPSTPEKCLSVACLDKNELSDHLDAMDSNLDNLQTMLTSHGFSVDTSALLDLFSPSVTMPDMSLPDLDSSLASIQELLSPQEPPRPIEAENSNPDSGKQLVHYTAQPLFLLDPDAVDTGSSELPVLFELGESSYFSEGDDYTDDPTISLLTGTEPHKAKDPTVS

[3] = ZM109 Env clade C HIV-1 fusion inhibitors, dose response, HeLa effector, CEM target cells, luciferase, cherry-pick (AID 652058); assay type: functional, cell-based
[4] = inhibitors of clade B AD8 Env fusion, dose response, cell-based, cherry-pick (AID 652062); assay type: functional;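 further: luciferase signal from cell-cell fusion driven by HIV-1 clade B AD8 Env; potency is for inhibitors of fusion seen as a drop in luminescence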
Protein RecA = target: T4, Protein RecA (Mycobacterium tuberculosis, UniProt P9WHJ3); assay: Fluorescence Cell-Free Homogeneous Dose Retest to Identify Inhibitors of RecA-Intein Splicing Activity. [Related pubchem assays (depositor defined):AID2097, AID2223, AID489010, AID492950]; assay type: functional
T4 sequence (P9WHJ3 whole entry): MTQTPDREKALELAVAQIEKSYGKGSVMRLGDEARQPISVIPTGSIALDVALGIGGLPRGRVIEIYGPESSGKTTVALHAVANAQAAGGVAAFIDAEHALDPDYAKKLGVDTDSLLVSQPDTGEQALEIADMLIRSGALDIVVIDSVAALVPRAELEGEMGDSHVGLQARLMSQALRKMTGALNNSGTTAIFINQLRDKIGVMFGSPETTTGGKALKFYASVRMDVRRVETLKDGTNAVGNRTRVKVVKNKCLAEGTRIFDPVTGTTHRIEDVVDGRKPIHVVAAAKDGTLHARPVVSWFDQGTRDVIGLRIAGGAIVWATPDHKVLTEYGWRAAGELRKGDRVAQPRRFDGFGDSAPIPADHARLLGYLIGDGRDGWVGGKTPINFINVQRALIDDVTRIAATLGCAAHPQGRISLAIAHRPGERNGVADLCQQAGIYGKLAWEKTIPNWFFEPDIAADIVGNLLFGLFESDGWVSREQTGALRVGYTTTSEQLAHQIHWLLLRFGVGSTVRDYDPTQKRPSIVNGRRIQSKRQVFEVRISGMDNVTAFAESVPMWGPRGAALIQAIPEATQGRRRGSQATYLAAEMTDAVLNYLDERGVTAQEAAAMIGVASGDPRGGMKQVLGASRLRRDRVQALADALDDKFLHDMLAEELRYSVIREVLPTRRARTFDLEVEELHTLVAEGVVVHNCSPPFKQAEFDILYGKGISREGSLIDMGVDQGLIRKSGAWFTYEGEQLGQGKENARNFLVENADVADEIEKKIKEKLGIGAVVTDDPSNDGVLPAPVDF

[5] = microbe, parasite or virus in culture; assay type: functional; conditions: Mycobacterium tuberculosis
[6] = target: T5, Replicative DNA helicase DnaB (Mycobacterium tuberculosis, UniProt P9WMR3); assay: DnaB intein splicing inhibitors, dose response, biochemical, cell-free fluorescence (AID 449749); assay type: functional
T5 sequence (P9WMR3 whole entry): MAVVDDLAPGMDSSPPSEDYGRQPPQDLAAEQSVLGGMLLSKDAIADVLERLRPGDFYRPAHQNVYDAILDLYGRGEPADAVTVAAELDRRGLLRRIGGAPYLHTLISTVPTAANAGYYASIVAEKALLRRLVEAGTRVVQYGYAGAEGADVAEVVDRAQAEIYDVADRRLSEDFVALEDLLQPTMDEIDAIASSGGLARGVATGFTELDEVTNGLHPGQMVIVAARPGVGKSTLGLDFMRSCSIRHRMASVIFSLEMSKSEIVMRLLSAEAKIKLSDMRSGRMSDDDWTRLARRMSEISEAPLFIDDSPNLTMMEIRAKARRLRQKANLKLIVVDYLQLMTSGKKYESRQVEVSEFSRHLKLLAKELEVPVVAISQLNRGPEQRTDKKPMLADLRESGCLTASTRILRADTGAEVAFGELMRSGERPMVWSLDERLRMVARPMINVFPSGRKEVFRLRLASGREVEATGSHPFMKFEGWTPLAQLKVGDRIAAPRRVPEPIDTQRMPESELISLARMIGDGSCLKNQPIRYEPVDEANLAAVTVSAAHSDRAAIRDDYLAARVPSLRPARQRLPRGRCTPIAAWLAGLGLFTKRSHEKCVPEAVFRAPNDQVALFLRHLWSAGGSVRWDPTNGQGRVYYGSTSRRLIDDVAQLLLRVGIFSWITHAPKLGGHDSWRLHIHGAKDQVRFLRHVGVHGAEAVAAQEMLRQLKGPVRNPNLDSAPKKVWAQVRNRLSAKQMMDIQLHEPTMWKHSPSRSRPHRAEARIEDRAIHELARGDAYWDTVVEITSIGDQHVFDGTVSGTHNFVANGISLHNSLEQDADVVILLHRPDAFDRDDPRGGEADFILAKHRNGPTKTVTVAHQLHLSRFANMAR

cells = assay type: functional
[7] = test system: Streptococcus sp. 'group A'; assay: growth inhibition of control SK(-) GAS strain, dose response, counter-screen for streptokinase expression inhibitor project, luminescence, kanamycin, BacTiterGlo, confirmation (AID 1900); assay type: functional, organism-based
Streptococcus = assay: Group A Streptococcus viability loss, dose response, counter-screen for streptokinase expression inhibitor project, luminescence, BacTiterGlo (AID 1915); assay type: functional, organism-based;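 further: potency for reduction of bacterial viability or growth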
INS1 = assay: beta cell apoptosis inhibitors, cytokine rescue, dose response, luminescence, retest (AID 449756); assay type: functional, cell-based; conditions: Rattus norvegicus;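 further: cell death triggered by IL-1 beta plus TNF-alpha plus IFN-gamma mixture; protective hits raise ATP signal compared with cytokine alone wells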
[8] = control 3'UTR Renilla luciferase suppression, dose response, counter-screen for Shn3 inhibitor project, cell-based, Clone20-Shn3RL, cherry-picked (AID 624133); assay type: functional
[9] = Shn3 3'UTR reporter inhibitors, dose response, cell-based, Clone20 osteoblasts, firefly luciferase, cherry-picked (AID 624132); assay type: functional;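 further: firefly luciferase luminescence from reporter carrying the Shn3 3'UTR in osteoblasts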
SN12K1 = assay: cells; assay type: functional; conditions: Homo sapiens
P388 = assay: cells; assay type: functional; conditions: Mus musculus;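 further: compound exposure lasted 48 hours before growth was measured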

Chain of Large T antigen (P03070 whole entry): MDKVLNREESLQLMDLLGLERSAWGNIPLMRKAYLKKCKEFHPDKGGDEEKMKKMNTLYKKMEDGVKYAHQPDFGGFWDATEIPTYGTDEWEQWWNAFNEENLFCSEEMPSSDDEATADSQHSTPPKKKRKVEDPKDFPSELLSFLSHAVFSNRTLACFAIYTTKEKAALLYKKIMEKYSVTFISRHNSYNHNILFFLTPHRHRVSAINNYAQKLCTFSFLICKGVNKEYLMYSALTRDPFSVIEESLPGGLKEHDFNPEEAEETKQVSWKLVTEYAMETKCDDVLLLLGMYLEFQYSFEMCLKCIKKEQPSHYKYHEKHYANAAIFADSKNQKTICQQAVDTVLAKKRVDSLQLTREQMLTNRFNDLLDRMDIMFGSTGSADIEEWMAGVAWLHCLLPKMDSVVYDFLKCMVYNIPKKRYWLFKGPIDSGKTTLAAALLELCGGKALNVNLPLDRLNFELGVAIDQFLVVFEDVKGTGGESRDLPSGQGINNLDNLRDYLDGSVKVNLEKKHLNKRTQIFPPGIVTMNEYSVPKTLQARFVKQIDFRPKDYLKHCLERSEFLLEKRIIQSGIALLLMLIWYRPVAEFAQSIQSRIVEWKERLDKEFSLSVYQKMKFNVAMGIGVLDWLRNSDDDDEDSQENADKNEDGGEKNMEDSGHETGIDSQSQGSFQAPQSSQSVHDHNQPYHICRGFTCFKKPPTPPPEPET
Chain of FAD-linked sulfhydryl oxidase ALR (P55789 whole entry): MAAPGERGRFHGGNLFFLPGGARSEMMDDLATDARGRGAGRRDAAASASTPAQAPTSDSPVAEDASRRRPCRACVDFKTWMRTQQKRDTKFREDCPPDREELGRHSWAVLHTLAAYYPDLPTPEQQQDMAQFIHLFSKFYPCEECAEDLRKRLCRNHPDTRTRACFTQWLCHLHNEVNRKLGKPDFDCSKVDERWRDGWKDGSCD
Chain of Paired box protein Pax-8 (Q06710 whole entry): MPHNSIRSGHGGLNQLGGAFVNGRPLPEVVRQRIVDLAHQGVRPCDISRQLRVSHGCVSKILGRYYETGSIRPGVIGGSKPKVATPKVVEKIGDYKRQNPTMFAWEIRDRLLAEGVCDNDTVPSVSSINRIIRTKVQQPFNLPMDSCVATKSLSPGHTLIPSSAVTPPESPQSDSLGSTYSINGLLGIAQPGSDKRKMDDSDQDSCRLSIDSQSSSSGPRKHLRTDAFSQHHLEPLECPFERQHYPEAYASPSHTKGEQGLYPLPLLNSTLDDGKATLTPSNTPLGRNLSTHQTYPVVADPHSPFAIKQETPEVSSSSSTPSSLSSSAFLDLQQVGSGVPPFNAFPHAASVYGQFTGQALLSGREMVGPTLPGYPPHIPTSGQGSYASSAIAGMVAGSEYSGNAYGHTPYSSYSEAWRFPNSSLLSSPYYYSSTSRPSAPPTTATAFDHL

With COc1cccc(N2CCN(C(=O)C3CCCN(S(=O)(=O)c4c[nH]cn4)C3)CC2)c1 (stereo not drawn) the AC50 [1] was 16.8 µM (active).
With O=C(NNc1c2ccccc2nc2ccccc12)c1cccc(O)c1 the AC50 [1] was 0.738 µM (active).
In the case of Nc1ccc(Sc2ccccc2CC(=O)O)cc1, the IC50 (Large T antigen) is reported as > 100 µM (active).
In the case of Cc1ccnc(NC(c2ccccn2)c2c(C)[nH]c3ccccc23)c1 (stereo not drawn), the AC50 [1] is reported as 1.39 µM (active).
With COc1ccc(C(=O)c2ccc(Cl)c([N+](=O)[O-])c2)cc1 the AC50 [1] was 3.95 µM (active) and the AC50 (Paired box protein Pax-8) was 7.17 µM (active).
In the case of COc1cc(/C=C2\SC(=S)N(NS(=O)(=O)c3ccccc3)C2=O)ccc1O, the IC50 (Large T antigen) is reported as 14.5 µM (active), the IC50 (Leucine aminopeptidase) is reported as 38.8 µM (active) and the IC50 (Aminopeptidase N) is reported as 24.5 µM (active).
In the case of Oc1ccc(-c2nc3cnccn3c2Nc2ccc3c(c2)OCCO3)cc1, the IC50 (Large T antigen) is reported as 4.14 µM (active) and the EC50 [2] is reported as 11 µM (active).
For CC(C)CNS(=O)(=O)c1ccc(CCC(=O)N2CCN(Cc3ccc4c(c3)OCO4)CC2)cc1, the AC50 [3] was 12.1 µM (active) and the AC50 [4] was 27.2 µM (active).
With Cc1cc(C(=O)CCl)c(C)n1CCc1ccc(Cl)cc1 the EC50 (Protein RecA) was 7.32 µM (active), the CC50 [5] was 2.48 µM (active) and the EC50 [2] was > 260 µM (inconclusive). For the same compound, the AC50 [6] was 8.7 µM (active).
For COc1ccc2[nH]c3ccc(OC)cc3c2c1, the AC50 [1] was 8.33 µM (active).
For Cc1ccc2nccc(C(=O)N3CCCC(Nc4ccc(F)cc4)C3)c2c1 (stereo not drawn), the AC50 [1] was 3.03 µM (active).
With CN1CCCNc2nc3ccccc3nc21 the AC50 [1] was 9.27 µM (active).
For O=C(Nc1nnc(-c2ccc3c(c2)CCCC3)o1)c1c(F)cccc1F, the IC50 (cells) was 4.08 µM (active), the AC50 [1] was 7.99 µM (active) and the EC50 [7] was 1.77 µM (active). The EC50 (Streptococcus) was 7.35 µM (active).
In the case of Clc1ccc(-c2cc(-c3nnc4n3CCCCC4)c3ccccc3n2)cc1, the AC50 (INS1) is reported as 6.17 µM (active), the AC50 [8] is reported as 11.1 µM (active) and the AC50 [9] is reported as 5.59 µM (active).
In the case of Cc1noc(C)c1C(=O)Nc1ccc(N(C)C)cc1, the AC50 [1] is reported as 1.3 µM (active).
With CCCCCOc1ccc(/C=N\c2ccc(-c3ccc(/N=C\c4ccc(OCCCCC)cc4)c(OC)c3)cc2OC)cc1 the GI50 (SN12K1) was > 100 µM (inactive) and the GI50 (P388) was > 100 µM (inactive).
In the case of CC(=O)Nc1ccc(/C=C/c2ccc(NC(=O)Nc3ccc(/C=C/c4ccc(NC(C)=O)cc4S(=O)(=O)O)c(S(=O)(=O)O)c3)cc2S(=O)(=O)O)c(S(=O)(=O)O)c1, the GI50 (SN12K1) is reported as > 100 µM (inactive) and the GI50 (P388) is reported as > 100 µM (inactive).
In the case of COc1ccc(CC(=O)N/N=C(\C)CC(=O)Nc2ccc(N(C)C)cc2)cc1OC, the IC50 (Large T antigen) is reported as 10.1 µM (active).

— ChEMBL document CHEMBL1201862, “PubChem BioAssay data set” (2004)
